Columns and labels:
[1] = Measurement of particle diameter via Zeta Sizer; type: physicochemical; conditions: PBS, DLS
Procedure: AG-08 was dissolved in DMSO a 1000-fold concentrated stock and added into the filtered PBS. Then particle diameter was immediately measured via zeta-sizer (DLS–Particulate Systems). Measurement was repeated in triplicate.

EEA1 = EEA1 immunofluorescence; type: cell-based, Human; conditions: HCC1937, AG-08 16 h
Procedure: Figure 2 AG-08 is related with endosomal pathway. (A) After pre-treatment with 20 µM pitstop II, 0.5 mM methyl-β-cyclodextrin (MβC), 80 µM dynasore, 20 µM cytochalasin d (Cyto D) or 20 µM chlorpromazine (CPZ) for 1 h, HCC1937 cells were treated with 8 µM AG-08 for 24 h. Then cell viability was determined by using WST-1. Reported values were normalized on cells treated with only AG-08. Error bars are the standard deviations (n = 3). p-values were calculated with respect to AG-08 treated cells by two-tailed equal variance Student’s t-test (*p < 0.05, ***p < 0.001, ****p < 0.0001) (B) HCC1937 cells were treated with brefeldin A (Bref A) for 1 h and then treated with 8 µM AG-08 for 24 h. Error bars represent standard deviations (n = 3). p-values were calculated with respect to AG-08-treated cells (*p < 0.05, **p < 0.005, ***p < 0.001). (C) Following AG-08 treatment for 16 h, EEA1 proteins were stained using the anti-EEA1 antibody in HCC1937 cells (scale bar = 25 µm).
Cells were grown on glass coverslips and treated with AG-08. At the end of treatments, cells were washed twice with ice-cold PBS and fixed with 4% paraformaldehyde in PBS for 30 min at 4 °C. After washing 6 times with PBS, cells were permeabilized and blocked with 0.01% saponin and 0,01% BSA in PBS. […] Mounted samples were analyzed by fluorescence microscopy (Olympus IX70, Japan).

CHOP = CHOP expression (immunoblot, q-RTPCR); type: cell-based
Text: Figure 3 mRNA microarray analysis was used to identify differentially expressed genes via AG-08 treatment. (A) Heatmap representing the expressions of 193 genes with significant different expression in AG-08 treated cells compared with control. Heatmap was generated by GraphPad Prism version 8 (https://www.graphpad.com/scientific-software/prism/). (B) Protein–protein network analysis was formed via STRING. The thickness of the connecting lines indicates the strength of data support for physical and/or functional associations. (C) Pathway enrichment was determined using GO, KEGG, and Reactome pathway analysis. […] Size of circle represents the significance of enrichment. (D) The protein levels of CHOP were determined via IB. 0.5 µg/ml tunicamycin (Tun) was used as positive control. The experiments were repeated three times independently; with one representative result shown. (E) mRNA level of the CHOP was investigated using quantitative PCR (q-RTPCR). Error bars represent standard error (s.e.). p-values were calculated with respect to vehicle-treated cells by one-way Anova test. (**p < 0.005, ****p < 0.0001). (F) The expression and localization of Calnexin protein were evaluated using immunofluorescence via anti-Calnexin antibody (scale bar 25 µm).
The total RNA was isolated using Total RNA Isolation Kit (Bio-Rad, US) following the manufacturer’s instructions. cDNAs were synthesized using The iScript cDNA synthesis kit (Bio-Rad, US) according to the manufacturer’s instructions. To gene expression analysis, specific primers were designed against CHOP (forward: […], reverse: […] ). Quantitative RT-PCR (qRT-PCR) was performed using The SYBR Green I Mastermix (Bio-Rad, US) and LightCycler480 thermocycler (Roche). […] For relative quantification, reaction efficiency incorporated ΔΔCq formula was used. […]
Cell lysates were prepared by RIPA buffer (1XPBS, 1% nonidet P-40, 0.5% sodium deoxycholate, and 0.1% SDS, pH 8.0). Protein concentrations were determined by bicinchoninic acid (BCA) protein assay (Thermo Fisher Scientific, US). […]

HCC1937 [2] = assay: LDH (lactate dehydrogenase) releasing assay; type: cell-based, Human; conditions: LDH release and immunoblotting
Procedure: Figure 5 The cytotoxic activity of analogs depends on particle formation like AG-08. […] The level of released LDH was calculated as fold change relative to vehicle. […] After 24 h, cell viability was measured. […] Cell viability after 24 h was measured. The reported values correspond to mean values ± standard deviation (± s.d) of three experiments. ***p < 0.001, ****p < 0.0001.
LDH-Cytotoxicity Colorimetric Assay Kit II (Biovision) was used to detect LDH releasing. Briefly, HCC1937 were seeded on 96 well plate. After treatment with compounds, cells were centrifuged at 600×g for 10 min. 10 µl supernatant were transferred into clean 96 well plate and added into 100 µl LDH Reaction Mix. Following 30 min incubation at room temperature, 10 µl stop solution were added, and absorbance was measured at 450 nm (Varioscan, Thermo Fisher Scientific, US).

[3] = Cytotoxic activity after freeze–thaw cycle; type: cell-based; conditions: solution, no change in chemical structure
HCC1937 [4] = tested on: HCC1937; parameters: method as in PMID 33136369; conditions: cited from earlier work
A549 = tested on: A549; parameters: method as in PMID 33136369; conditions: cited from earlier work

In the case of `Cc1ccc(S(=O)(=O)OC2CCC3(C)C4=CCC5(C)C(C6(C)CCC(C(C)(C)O)O6)C(O)CC5(C)C4C=CC3C2(C)C)cc1` (stereo not shown) [AG-08], the “Diameter of supramolecular structures (hydrodynamic)” value [1] is reported as 153.2 ± 4.6, the polydispersity index [1] is reported as 0.218 and the EEA1 positive vesicles (EEA1) is reported as “dramatic decrease”. For the same compound, the CHOP protein level (CHOP; 8 µM) was “enhanced”, the CHOP protein level (CHOP; 16 µM) was “decreased” and the “CHOP (DDIT3) expression” value (CHOP; AG-08 treated cells) was “upregulated in a dose-dependent manner”. For the same compound, the “mode of cell death” value (HCC1937 [2]) was “induced necrotic cell death”, the “cytotoxic activity after one freeze–thaw cycle” value [3] was “lost” and the IC50 (HCC1937 [4]) was 3.81 µM. The IC50 (A549) was 2300 nM.

From publication PMC9381536, “Non-apoptotic cell death induction via sapogenin based supramolecular particles” (Scientific Reports, 2022)
